Assay results as given in US9737504B2, “Dihydroorotic and acid dehydrogenase inhibitor” (NAI INC., priority 2012, dated 2017).
Where two headings read alike, the source gives them in different places.

Columns and labels:
Assay type in all cases: cell-based
MKN74 = assay: JFCR39 cancer cell growth inhibition test, MKN74; details: Homo sapiens, MKN-74; MKN74, St (Stomac)
MKN45 = assay: JFCR39 cancer cell growth inhibition test, MKN45; details: Homo sapiens, MKN-45; MKN45, St (Stomac)
MDA-MB-231 = assay: JFCR39 cancer cell growth inhibition test, MDA-MB-231; details: Homo sapiens; MDA-MB-231, Br (Breast)
HCT-15 = assay: JFCR39 cancer cell growth inhibition test, HCT-15; details: Homo sapiens; HCT-15, Co (Colon)
[1] = system: HDF cells (human dermal fibroblast cells); assay: Inhibitory effect on HDF cells, control vs hypoxic and subnutritional conditions; details: for IC50: Homo sapiens, HDF normal skin cells
Procedure: For these reasons, cells of colorectal and pancreatic cancers, each being regarded as intractable, were used to test the inhibitory effect of compounds under hypoxic and subnutritional conditions. Moreover, the same test was also performed on normal skin cells.
The cells used were two types of cancer cells, i.e., DLD-1 cells (human colorectal cancer cells) and Panc-1 cells (human pancreatic cells), as well as HDF cells (human dermal fibroblast cells).

DMS273 = assay: JFCR39 cancer cell growth inhibition test, DMS273; details: Homo sapiens, DMS-273; DMS273, Lu (Lung)
NCI-H226 = assay: JFCR39 cancer cell growth inhibition test, NCI-H226; details: Homo sapiens; NCI-H226, Lu (Lung)
DU-145 = assay: JFCR39 cancer cell growth inhibition test, DU-145; details: Homo sapiens; DU-145, xPg (Prostate)
HCT-116 = assay: JFCR39 cancer cell growth inhibition test, HCT-116; details: Homo sapiens; HCT-116, Co (Colon)
SF-539 = assay: JFCR39 cancer cell growth inhibition test, SF-539; details: Homo sapiens; SF-539, CNS (Central Nervous Systems)

## C/C(=C\Cc1c(O)c(Cl)c(C)c(C=O)c1O)CC/C=C(\C)[C@@H]1CC(=O)C(C)(C)O1 (racemic) [Ascofuranone, dl-5-Chloro-2,4-dihydroxy-6-methyl-3-[(2E,6E)-3-methyl-7-(3,3-dimethyl-4-oxo-2-oxacyclopentyl)-2,6-octadienyl]benzaldehyde]
MKN74
  GI50: 13 µM
MKN45
  GI50: 10 µM
MDA-MB-231
  GI50: 7.4 µM
HCT-15
  GI50: 1.3 µM
[1]; HDF
  Selectivity = 21% glc(+)gln(+) IC50/1% glc(−)gln(−) IC50: >63
[1]; read-out: IC50 [μM] 1% O2 glc(−)gln(−), 1% O2 glc(−)gln(−)
  IC50: 1.6 µM
[1]; 21% O2 glc(+)gln(+), read-out: IC50 [μM] 21% O2 glc(+)gln(+)
  IC50: > 100 µM
DMS273
  GI50: 5.9 µM
NCI-H226
  GI50: 15 µM
DU-145
  GI50: 11 µM
HCT-116
  GI50: 5.1 µM
SF-539
  GI50: 1.7 µM
